Reference: patent US12545672B2, “Antibiotic compounds, methods of manufacturing the same, pharmaceutical compositions containing the same and uses thereof” (Debiopharm International S.A., priority 2018, dated 2026)
Where two headings read alike, the source gives them in different places.

Key:
[1] = tested on: Neisseria gonorrhoeae; experiment: MIC50 by CLSI agar dilution on a panel of N. gonorrhoeae clinical isolates; assay type: cell-based; conditions: Neisseria gonorrhoeae
Experimental: MIC50: MICs were determined in accordance with the appropriate Clinical and Laboratory Standards Institute (CLSI) methodology by the agar dilution susceptbility testing method in GC agar base.

[2] = molecular target: Neisseria gonorrhoeae FabI (Neisseria gonorrhoeae, UniProt A0ACH0F547); experiment: Neisseria gonorrhoeae FabI inhibition assay (NADH consumption)
Neisseria gonorrhoeae FabI, sequence (A0ACH0F547 1-261): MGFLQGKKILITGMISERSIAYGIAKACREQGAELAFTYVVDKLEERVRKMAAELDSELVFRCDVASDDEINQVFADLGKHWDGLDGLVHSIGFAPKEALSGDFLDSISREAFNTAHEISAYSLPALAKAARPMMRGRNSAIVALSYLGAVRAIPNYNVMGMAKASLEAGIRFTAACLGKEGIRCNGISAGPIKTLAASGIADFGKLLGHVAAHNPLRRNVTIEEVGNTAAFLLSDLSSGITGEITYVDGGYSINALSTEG

[3] = agar dilution, GC agar base, minimum of 15 clinical isolates, read-out: MIC50

| MIC50 [1, 3] | IC50 [2] | SMILES | MIC50 [1] |
| --- | --- | --- | --- |
| < 1 µg/mL | < 0.01 µM | Cc1oc2ccccc2c1CN(C)C(=O)/C=C/c1cnc2c(c1)N[C@H](C)[C@H](O)C(=O)N2 (single isomer, unassigned) [Compound 151] | – |
| < 1 µg/mL | < 0.01 µM | Cc1oc2c(Oc3ccc4c(c3)OCC4)cccc2c1CN(C)C(=O)/C=C/c1cnc2c(c1)NC(C)(C)C(=O)N2 [Compound 164, (E)-N-((7-((2,3-dihydrobenzofuran-6-yl)oxy)-2-methylbenzofuran-3-yl)methyl)-3-(2,2-dimethyl-3-oxo-1,2,3,4-tetrahydropyrido[2,3-b]pyrazin-7-yl)-N-methylacrylamide] | – |
| < 1 µg/mL | < 0.01 µM | N#Cc1ccc(Oc2ccc(C3=C[C@@H]4CN(C(=O)/C=C/c5cnc6c(c5)NCCC(=O)N6)C[C@@H]4C3)cc2)cc1 (stereo in doubt) [Compound 198, 4-(4-((3aR,6aS)-2-((E)-3-(4-oxo-2,3,4,5-tetrahydro-1H-pyrido[2,3-b][1,4]diazepin-8-yl)acryloyl)-1,2,3,3a,4,6a-hexahydrocyclopenta[c]pyrrol-5-yl)phenoxy)benzonitrile] | – |
| < 1 µg/mL | < 0.01 µM | Cc1c(CN(C)C(=O)/C=C/c2cnc3c(c2)N[C@](C)(CO)C(=O)N3)oc2ccccc12 (single isomer, unassigned) [Compound 209] | – |
| < 1 µg/mL | < 0.01 µM | Cc1oc2ccccc2c1CN(C)C(=O)/C=C/c1cnc2c(c1)NCCC(=O)N2 [Compound 170, (E)-N-Methyl-N-((2-methylbenzofuran-3-yl)methyl)-3-(4-oxo-2,3,4,5-tetrahydro-1H-pyrido[2,3-b][1,4]diazepin-8-yl)acrylamide] | – |
| < 1 µg/mL | < 0.01 µM | Cc1oc2c(Oc3ccc4c(c3)OCC4)cccc2c1CN(C)C(=O)/C=C/c1cnc2c(c1)NC[C@@](C)(O)C(=O)N2 [Compound 182, (R,E)-N-((7-((2,3-dihydrobenzofuran-6-yl)oxy)-2-methylbenzofuran-3-yl)methyl)-3-(3-hydroxy-3-methyl-4-oxo-2,3,4,5-tetrahydro-1H-pyrido[2,3-b][1,4]diazepin-8-yl)-N-methylacrylamide] | – |
| < 1 µg/mL | < 0.01 µM | Cc1c(CN(C)C(=O)/C=C/c2cnc3c(c2)CCCC(=O)N3)oc2cccc(N)c12 [Compound 5, (E)-N-((4-amino-3-methylbenzofuran-2-yl)methyl)-N-methyl-3-(8-oxo-6,7,8,9-tetrahydro-5H-pyrido[2,3-b]azepin-3-yl)acrylamide] | – |
| < 1 µg/mL | < 0.01 µM | Cc1c(CN(C)C(=O)/C=C/c2cnc3c(c2)NC[C@@](C)(O)C(=O)N3)oc2cccc(N)c12 [Compound 143, (R,E)-N-((4-amino-3-methylbenzofuran-2-yl)methyl)-3-(3-hydroxy-3-methyl-4-oxo-2,3,4,5-tetrahydro-1H-pyrido[2,3-b][1,4]diazepin-8-yl)-N-methylacrylamide] | – |
| < 1 µg/mL | < 0.01 µM | Cc1c(CN(C)C(=O)/C=C/c2cnc3c(c2)NC[C@@](C)(CO)C(=O)N3)oc2ccccc12 [Compound 32, (S,E)-3-(3-(hydroxymethyl)-3-methyl-4-oxo-2,3,4,5-tetrahydro-1H-pyrido[2,3-b][1,4]diazepin-8-yl)-N-methyl-N-((3-methylbenzofuran-2-yl)methyl)acrylamide] | – |
| < 1 µg/mL | < 0.01 µM | COc1cccc(Oc2cccc3c(CN(C)C(=O)/C=C/c4cnc5c(c4)CCCC(=O)N5)c(C)oc23)c1 [Compound 186, (E)-N-((7-(3-methoxyphenoxy)-2-methylbenzofuran-3-yl)methyl)-N-methyl-3-(8-oxo-6,7,8,9-tetrahydro-5H-pyrido[2,3-b]azepin-3-yl)acrylamide] | – |
| < 1 µg/mL | < 0.01 µM | Cc1oc2c(N)cccc2c1CN(C)C(=O)/C=C/c1cnc2c(c1)NC[C@@](C)(O)C(=O)N2 [Compound 167, (R,E)-N-((7-amino-2-methylbenzofuran-3-yl)methyl)-3-(3-hydroxy-3-methyl-4-oxo-2,3,4,5-tetrahydro-1H-pyrido[2,3-b][1,4]diazepin-8-yl)-N-methylacrylamide] | – |
| < 1 µg/mL | < 0.01 µM | Cc1oc2c(N)cccc2c1CN(C)C(=O)/C=C/c1cnc2c(c1)NCCC(=O)N2 [Compound 75, (E)-N-((7-Amino-2-methylbenzofuran-3-yl)methyl)-N-methyl-3-(4-oxo-2,3,4,5-tetrahydro-1H-pyrido[2,3-b][1,4]diazepin-8-yl)acrylamide] | – |
| < 1 µg/mL | < 0.01 µM | Cc1c(CN(C)C(=O)/C=C/c2cnc3c(c2)NC(C)(CO)C(=O)N3)oc2ccccc12 (stereo not shown) [Compound 84, (E)-3-(2-(Hydroxymethyl)-2-methyl-3-oxo-1,2,3,4-tetrahydropyrido[2,3-b]pyrazin-7-yl)-N-methyl-N-((3-methylbenzofuran-2-yl)methyl)acrylamide] | – |
| < 1 µg/mL | < 0.01 µM | O=C1CCNc2cc(/C=C/C(=O)N3C[C@H]4CC(c5ccc(Oc6ncccn6)cc5)=C[C@H]4C3)cnc2N1 [Compound 60, 8-((E)-3-Oxo-3-((3aS,6aR)-5-(4-(pyrimidin-2-yloxy)phenyl)-3,3a,4,6a-tetrahydrocyclopenta[c]pyrrol-2(1H)-yl)prop-1-en-1-yl)-1,2,3,5-tetrahydro-4H-pyrido[2,3-b][1,4]diazepin-4-one] | – |
| < 1 µg/mL | < 0.01 µM | Cc1oc2c(Oc3cncs3)cccc2c1CN(C)C(=O)/C=C/c1cnc2c(c1)NCCC(=O)N2 [Compound 101, (E)-N-Methyl-N-((2-methyl-7-(thiazol-5-yloxy)benzofuran-3-yl)methyl)-3-(4-oxo-2,3,4,5-tetrahydro-1H-pyrido[2,3-b][1,4]diazepin-8-yl)acrylamide] | – |
| < 1 µg/mL | < 0.01 µM | Cc1c(CN(C)C(=O)/C=C/c2cnc3c(c2)NC[C@H](O)C(=O)N3)oc2ccccc12 [Compound 230, (S,E)-3-(3-Hydroxy-4-oxo-2,3,4,5-tetrahydro-1H-pyrido[2,3-b][1,4]diazepin-8-yl)-N-methyl-N-((3-methylbenzofuran-2-yl)methyl)acrylamide] | – |
| < 1 µg/mL | < 0.01 µM | Cc1c(CN(C)C(=O)/C=C/c2cnc3c(c2)NC[C@](C)(CO)C(=O)N3)oc2ccccc12 [Compound 33, (R,E)-3-(3-(hydroxymethyl)-3-methyl-4-oxo-2,3,4,5-tetrahydro-1H-pyrido[2,3-b][1,4]diazepin-8-yl)-N-methyl-N-((3-methylbenzofuran-2-yl)methyl)acrylamide] | – |
| < 1 µg/mL | < 0.01 µM | Cc1c(CN(C)C(=O)/C=C/c2cnc3c(c2)NC(C)(C)C(=O)N3)oc2ccccc12 [Compound 19, (E)-3-(2,2-dimethyl-3-oxo-1,2,3,4-tetrahydropyrido[2,3-b]pyrazin-7-yl)-N-methyl-N-((3-methylbenzofuran-2-yl)methyl)acrylamide] | – |

| SMILES | MIC50 [1, 3] | IC50 [2] | MIC50 [1] |
| --- | --- | --- | --- |
| Cc1oc2c(Oc3ccc(C#N)cc3)cccc2c1CN(C)C(=O)/C=C/c1cnc2c(c1)NC[C@@](C)(O)C(=O)N2 [Compound 152, (R,E)-N-((7-(4-cyanophenoxy)-2-methylbenzofuran-3-yl)methyl)-3-(3-hydroxy-3-methyl-4-oxo-2,3,4,5-tetrahydro-1H-pyrido[2,3-b][1,4]diazepin-8-yl)-N-methylacrylamide] | – | < 0.01 µM | < 1 µg/mL |
| Cc1c(CN(C)C(=O)/C=C/c2cnc3c(c2)C[C@@](C)(O)C(=O)N3)oc2ccccc12 (single isomer, unassigned) [Compound 247] | – | < 0.01 µM | < 1 µg/mL |
